From patent publication US20250084372A1, “IN VITRO DERIVATION OF GONADAL SOMATIC CELLS” (Conception Bisosciences, Inc., priority 2020, published 2025)

How the values were obtained:
[1] = system: second intermediate cell population (LHX1, PAX2, WT1, RUNX1); assay: Intermediate mesoderm marker expression in second intermediate cell population; assay type: cell-based, human; details: increasing concentration; for expression of intermediate mesoderm markers WT1 and RUNX1: CHIR 0.5, 1 or 2 μM, RA or TTNPB 0, 0.1, 0.5 or 1 μM
Experimental: The cell suspension was centrifuged at 1200 RPM for 5 min and the supernatant was discarded. The centrifuged cells were resuspended in 1 ml of GK2 medium and the cells were counted. […] The plates were cultured for 24 hours, and then 80% of the media was replaced with fresh IM-induction media without the ROCK inhibitor. 80% of the media was again replaced every other day until the cells became confluent (about 5-6 days). Once the cells were confluent, the cells were passaged to fresh fibronectin-coated 24-well plates, with at least 50,000 cells per well after passage (25k/cm^2).

[2] = system: ovarian somatic cells (OSCs); assay: RA concentration and exposure gradient during OSC induction, FOXL2 and KRT19 staining; details: 10-step gradient 0 μM to 10 μM
[3] = system: second intermediate cell population; assay: Induction of second intermediate (IM) cell population: survival and morphology, phase contrast; assay type: cell-based, human; details: 5 days in IM-induction media, increasing concentration
Experimental: The cell suspension was centrifuged at 1200 RPM for 5 min and the supernatant was discarded. The centrifuged cells were resuspended in 1 ml of GK2 medium and the cells were counted. About 720,000 cells (from 24 well plate: 30,000 cells per well) were added to 12 mL IM-induction medium (as prepared in Table 10, but without the ROCK inhibitor). 12 μL ROCK inhibitor Y-27632 (1000×) or 36 μL of CET (3:1000) (final concentration of CET in media: 50 nM Chroman1, 5 μM Emricasan, 0.7 μM Trans-ISRIB) was added to obtain 60,000 cells/mL. 500 μL of the solution was placed in each well of fibronectin coated 24-well plate (about 30,000 cells/well). The plates were cultured for 24 hours, and then 80% of the media was replaced with fresh IM-induction media without the ROCK inhibitor. 80% of the media was again replaced every other day until the cells became confluent (about 5-6 days). Once the cells were confluent, the cells were passaged to fresh fibronectin-coated 24-well plates, with at least 50,000 cells per well after passage (25k/cm^2). About 4-5 million second intermediate cells were produced per 24 well plate. […]

OSCs = system: OSCs
Experimental: To assay whether the gonadal somatic cells (such as the ovarian somatic cells—OSCs) generated from pluripotent stem cells are functional, expression of CYP19A1 was assayed by qPCR, and steroidogenesis was measured by ELISA for estradiol.
A first intermediate cell population expressing markers representative of mesoderm, and a second intermediate cell population expressing markers representative of intermediate mesoderm, and the OSCs were generated according to the protocols described in Example 6.

[4] = system: ovarian somatic cells (OSCs); assay: Concentration titration of BMP4, follistatin and FGF2 in OSC induction, qPCR for GATA4 and FOXL2; assay type: cell-based, human; details: BMP4 20 ng/mL, follistatin removed
Experimental: Various concentration titrations of BMP4, Follistatin and FGF were tested in OSC induction, and the resulting cells were examined for expression of bipotential gonadal markers as well as that of granulosa markers.
The OSCs were induced based on the protocols described in Example 6, but with various concentrations of BMP4. Follistatin and FGF tested.
The OSC induction conditions were first tested by varying the BMP4 concentration. […] The gene expression of resulting cells was tested by qPCR for bi-potential gonadal cell markers (GATA4) as well as for granulosa cell markers (FOXL2) (FIGS. 12A and 12B respectively). Expression of GATA4 increased with higher BMP4 concentration, and FOXL2 expression appeared to peak at 10 ng/ml of BMP4 under the conditions tested.
Four different concentrations of follistatin were then tested in OSC induction, with the concentration of BMP4 kept constant at 20 ng/ml as previously described. The gene expression of resulting cells was tested by qPCR for bi-potential gonadal cell markers (GATA4) as well as for granulosa cell markers (FOXL2) (FIGS. 12C and 12D respectively). […] The generation of mature OSCs were also examined by FOXL2 expression. […] In subsequent experiments, OSC induction in the absence or at lower concentrations of follistatin was further explored. […]

[5] = system: ovarian somatic cells (OSCs); assay: OSC induction with different FGF family members, marker expression; assay type: cell-based, human; details: 10 ng/mL FGF in granulosa double medium
Experimental: Fibroblast growth factors (FGFs) are a large family of proteins that are important for signaling events in a wide variety of processes. […] Briefly, gonadal cells were induced in granulosa doublemedium comprising different FGFs, and the expression of bipotential gonadal markers as well as that of granulosa markers were measured in the resulting cells.
The replated cells from the second intermediate population were incubated in the granulosa double medium (also referred to as gonadal induction medium or OSC induction medium) according to Table 18, with the same concentration of either FGF2, 9, 10, 16, 17, 18 or 19. The expression of bipotential gonadal markers (WT1, LHX9, GADD45G and GATA4) as well as granulosa markers (FOXL2, NR1H4 and KITLG) were measured in the resulting cells.

For Cc1c[nH]c(-c2cnc(NCCNc3ccc(C#N)cn3)nc2-c2ccc(Cl)cc2Cl)n1 [CHIR, CHIR99021], the “expression of intermediate mesoderm markers WT1 and RUNX1” value [1] was “increased expression” and the “expression of intermediate mesoderm markers LHX1 and PAX2” value ([1]; CHIR 1, 2 or 3 μM, RA 50 nM, 100 nM, 500 nM or 1 μM) was “increased expression”.
In the case of CC1=C(/C=C/C(C)=C/C=C/C(C)=C/C(=O)O)C(C)(C)CCC1 [RA, retinoic acid], the “RA concentration at which KRT19 staining peaked” value [2] is reported as “around 500 nM”.
For C/C(=C\c1ccc(C(=O)O)cc1)c1ccc2c(c1)C(C)(C)CCC2(C)C [TTNPB], the “cell survival and cellular morphology of second intermediate cell population” value [3] was “increased cell survival and uniform cellular morphology” and the “expression of intermediate mesoderm markers WT1 and RUNX1” value [1] was “increasing expression”.
With C[C@]12CCC(=O)C[C@@H]1CC[C@@H]1[C@@H]2CC[C@]2(C)[C@@H](O)CC[C@@H]12 [dHT, dihydroxy-testosterone] the “estradiol levels in the media, 48 hrs compared to 24-hr incubation” value (OSCs; 50 ng/ml, 48 hrs) was “further increase” and the “estradiol levels in the media” value (OSCs; 24-hr incubation, higher concentration) was “increased”.
For FGF2, the “FGF2 concentration at which GATA4 and FOXL2 expression reach saturation” value [4] was 20 ng/mL.
With “FGF16: fibroblast growth factor family member” the “expression of bipotential gonadal markers (WT1, LHX9, GADD45G, GATA4) compared to FGF2” value [5] was “comparable or higher” and the “expression of granulosa markers (FOXL2, NR1H4, KITLG) compared to corresponding medium” value [5] was “comparable”.
In the case of “FGF19: fibroblast growth factor family member”, the “expression of bipotential gonadal markers (WT1, LHX9, GADD45G, GATA4) compared to FGF2” value [5] is reported as “comparable or higher” and the “expression of granulosa markers (FOXL2, NR1H4, KITLG) compared to corresponding medium” value [5] is reported as “comparable”.
